Experiments:
Type in all cases: physicochemical
[1] = Solubility and aggregation in aqueous Triton-X100 solution (optical absorption spectra, FIG. 8, FIG. 9)
[2] = Solubility and aggregation in pure water
[3] = Solubility and aggregation in mixed water/ethanol solvent (optical absorption spectra, FIG. 7)

- concentration up to which the dye remains disaggregated ([1]; Triton-X100 2% (w/v), absorbance at around 730 nm (FIG. 9)): 20 µM
- solubility in the presence of Triton-X100 ([1]; aqueous, Triton-X100 present): grows high
- aggregation in pure water [2]: strong aggregation
- aggregation state ([3]; 10% (v/v) ethanol): substantially aggregated form
- water solubility on addition of alcohol ([3]; alcohol added): greatly improved
Substance: [Sb(tbpc)(SO4)(HSO4)].4H2O [Compound 2]
- aggregation state above certain concentration of the surfactant ([1]; aqueous Triton-X100, above certain surfactant concentration (FIG. 8)): remains dissolved in a disaggregated form
- aggregation state ([3]; 30% (v/v) ethanol): a peak ascribable to disaggregated species is clearly observed
- aggregation state ([3]; 50% ethanol): contribution of aggregated species is negligible
